Tests used:
[1] = tested on: patients with hypercholesterolemia and/or CHD; details: coronary and carotid arteries; cited from earlier work
[2] = tested on: men and women with average to mildly elevated total and LDL-cholesterol, below average HDL-cholesterol and no clinical evidence of atherosclerotic …; assay: AFCAPS/TexCAPS double-blind, randomized, placebo controlled primary prevention trial of lovastatin; format: in vivo, human
Source text: The following is a description of a clinical trial referred to herein as “AFCAPS/TexCAPS” or “AFCAPS” employing lovastatin to exemplify the methods of the present invention.
AFCAPS/TexCAPS was a primary prevention endpoint event trial which: (1) included unstable angina as a primary endpoint, reflecting the trend to treat coronary heart disease aggressively before a myocardial infarction has occurred; 2) involved aggressive pharmacologic intervention, with titration, to target an LDL-cholesterol goal lower than current National Cholesterol Education Panel guidelines for primary prevention; and 3) included a cohort comprised of men and women with a broad age range encompassing the elderly and included persons with a lipid profile consisting of average total and LDL-cholesterol, below average HDL-cholesterol levels; total cholesterol/HDL-cholesterol ratio greater than or equal to 4.5, with a baseline mean ratio of 6.1 for the cohort; and LDL/HDL-cholesterol ratio greater than or equal to 4.
Entrance inclusion criteria were LDL-cholesterol 130-190 mg/dl (or <130 if the ratio of total cholesterol/HDL is >6) and HDL-cholesterol ≦45 mg/dl for men and ≦47 mg/dl for women.
AFCAPS/TexCAPS was a double-blind, randomized, placebo controlled trial designed and powered to investigate whether chronic lipid-lowering, with lovastatin will decrease the rate of first acute major coronary events (e.g. sudden cardiac death, fatal and non-fatal myocardial infarction and unstable angina) compared to intervention with diet alone during at least 4.5 years of follow-up in a cohort without clinical evidence of atherosclerotic cardiovascular disease and with average to mildly elevated total cholesterol, average to midly elevated LDL-cholesterol, and below average HDL-cholesterol. Secondary objectives included whether chronic treatment with lovastatin, compared to placebo, would decrease cardiovascular morbidity and mortality across the spectrum of clinical events, by measuring the rates of: (1) fatal and non-fatal coronary revascularization procedures (2) unstable angina, (3) fatal and non-fatal myocardial infarction, (4) fatal and non-fatal cardiovascular events, (5) fatal and non-fatal coronary events.
All participants underwent dietitian taught group instruction in the American Heart Association Step 1 diet commencing at least 12 weeks prior to randomization (Week -12) and reinforced at Weeks-4 and -2. Baseline observations included collection of medical history, health habit and demographic data, physical exam, eye exam (San Antonio clinic only), chest X-ray, mammogram (women), electrocardiogram and analysis of lipids/lipoproteins, hematology, blood chemistry and urine. A 2-week placebo baseline run-in was followed by randomization of eligible compliant participants to treatment with lovastatin or placebo.
Participants included 6605 men and women with normal to mildly elevated total and LDL-cholesterol and below average HDL-cholesterol defined as: total cholesterol 180-264 mg/dl, LDL-cholesterol 130-190 mg/dl, HDL-cholesterol ≦45 mg/dl for men and ≦47 mg/dl for women and triglycerides ≦400 mg/dl. All lipid/lipoprotein entrance criteria had to be met on average at both four and two weeks prior to randomization (after at least eight weeks of diet therapy). In addition, for both total and LDL-cholesterol, the two eligibility determinations had to be within 15% of each other.
Excluded for clinical evidence of atherosclerotic cardiovascular disease were men and women who had: prior history of myocardial infarction; angina; claudication; cerebrovascular accident; or transient ischemic attack. Also excluded were those aged >73 years or <45 years (men) or <55 years (women) or those with secondary hyperlipoproteinemia, nephrotic syndrome, uncontrolled or insulin-dependent diabetes mellitus or uncontrolled hypertension.

[3] = Secondary Endpoint: Fatal and Nonfatal Coronary Events, lovastatin vs placebo
[4] = first acute major coronary events, baseline HDL-C tertile 34.5-39.5 mg/dl
[5] = first acute major coronary events, baseline HDL-C tertile <34.0 mg/dl
[6] = first acute major coronary events, baseline HDL-C tertile >39.5 mg/dl
[7] = first acute major coronary events, baseline LDL-C tertile 142.0-156.8 mg/dl
[8] = first acute major coronary events, baseline LDL-C tertile <142 mg/dl
[9] = first acute major coronary events, baseline LDL-C tertile >156.9 mg/dl

CC[C@H](C)C(=O)O[C@H]1C[C@@H](C)C=C2C=C[C@H](C)[C@H](CC[C@@H]3C[C@@H](O)CC(=O)O3)[C@H]21 [lovastatin]
progression of atherosclerotic lesions [1]: slow the progression of atherosclerotic lesions | Relative Risk (C.I.) ([2]; Primary Endpoint: acute major coronary events, lovastatin 20-40 mg once a day vs placebo, median 5.2 years): 0.63 (0.50, 0.79), | Relative Risk (C.I.) ([2]; Secondary Endpoint: Fatal and Nonfatal Cardiovascular Events, lovastatin vs placebo): 0.75 (0.62, 0.91), | Relative Risk (C.I.) [2, 3]: 0.75 (0.61, 0.92), | Risk Reduction [2, 3]: 25% | Relative Risk (C.I.) ([2]; Secondary Endpoint: Fatal and Nonfatal MI, lovastatin vs placebo): 0.60 (0.43, 0.83), | Relative Risk (C.I.) ([2]; Secondary Endpoint: Revascularizations, lovastatin vs placebo): 0.67 (0.52, 0.85), | Relative Risk (C.I.) ([2]; Secondary Endpoint: Unstable Angina, lovastatin vs placebo): 0.68 (0.48, 0.95), | % change in HDL-C from baseline to the one year point ([2]; baseline HDL-C tertile 34.5-39.5 mg/dl): 6.2% | % change in HDL-C from baseline to the one year point ([2]; baseline HDL-C tertile <34.0 mg/dl): 7.4% | % change in HDL-C from baseline to the one year point ([2]; baseline HDL-C tertile >39.5 mg/dl): 4.3% | % change in LDL-C from baseline to the one year point ([2]; baseline LDL-C tertile 142.0-156.8 mg/dl): −26.0% | % change in LDL-C from baseline to the one year point ([2]; baseline LDL-C tertile <142 mg/dl): −20.1% | % change in LDL-C from baseline to the one year point ([2]; baseline LDL-C tertile >156.9 mg/dl): −28.9% | dependence of risk reduction on baseline LDL-C and HDL-C ([2]; first acute major coronary events by LDL-C and HDL-C tertiles at randomization): independent of baseline LDL-C and HDL-C | Relative Risk (95% C.I.) [2, 4]: 0.57 | Risk Reduction [2, 4]: 43% | Relative Risk (95% C.I.) [2, 5]: 0.55 | Risk Reduction [2, 5]: 45% | Relative Risk (95% C.I.) [2, 6]: 0.85 | Risk Reduction [2, 6]: 15% | Relative Risk (95% C.I.) [2, 7]: 0.64 | Risk Reduction [2, 7]: 36% | Relative Risk (95% C.I.) [2, 8]: 0.66 | Risk Reduction [2, 8]: 34% | Relative Risk (95% C.I.) [2, 9]: 0.59 | Risk Reduction [2, 9]: 41%

Source: patent publication US20020103251A1, “Cholesterol-lowering therapy” (priority 1997, published 2002)
